# Tests used:
# Test in all cases: radiometric filter-binding kinase assay
# ROCK2 (rat) = conditions: accession and sequence are those of the human protein
# CSNK1D (human) = CSNK1D (human) (UniProt P48730)
# TAOK1 (human) = TAOK1 (human) (UniProt Q7L7X3)
# EPHA2 (human) = EPHA2 (human) (UniProt P29317)
# MAP3K1 (human) = MAP3K1 (human) (UniProt Q13233)
# NTRK1 (human) = NTRK1 (human) (UniProt P04629)
# CLK2 (human) = CLK2 (human) (UniProt P49760)
# RPS6KA3 KD1 KD2 (human) = RPS6KA3 KD1 KD2 (human) (UniProt P51812)
# [1] = biological target: STK11 CAB39 STRADA (human) (UniProt Q9Y376+Q7RTN6+Q15831)
# RIPK2 (human) = RIPK2 (human) (UniProt O43353)
# IRAK4 (human) = IRAK4 (human) (UniProt Q9NWZ3)
# Sequence of IRAK4 (human) (Q9NWZ3 whole entry, looked up): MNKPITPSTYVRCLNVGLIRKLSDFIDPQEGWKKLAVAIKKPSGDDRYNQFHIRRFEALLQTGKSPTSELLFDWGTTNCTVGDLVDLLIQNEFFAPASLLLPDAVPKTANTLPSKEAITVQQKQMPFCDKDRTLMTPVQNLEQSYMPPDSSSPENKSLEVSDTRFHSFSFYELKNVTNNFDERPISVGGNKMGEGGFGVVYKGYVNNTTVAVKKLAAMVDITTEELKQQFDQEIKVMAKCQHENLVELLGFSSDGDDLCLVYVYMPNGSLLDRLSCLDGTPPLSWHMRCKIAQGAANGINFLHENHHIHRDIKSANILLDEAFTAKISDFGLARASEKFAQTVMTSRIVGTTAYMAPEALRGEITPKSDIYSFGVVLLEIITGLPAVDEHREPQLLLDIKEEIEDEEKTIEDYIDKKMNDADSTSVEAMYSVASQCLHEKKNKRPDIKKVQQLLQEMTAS
# HIPK3 (human) = HIPK3 (human) (UniProt Q9H422)
# [2] = tested on: AKT2 (human), P31751 [S474D]; conditions: compound 10.0 µM
# MINK1 (human) = MINK1 (human) (UniProt Q8N4C8)
# MAP3K7 TAB1 (human) = MAP3K7 TAB1 (human) (UniProt Q15750+O43318)
# Sequence of MAP3K7 TAB1 (human) (O43318 whole entry, looked up): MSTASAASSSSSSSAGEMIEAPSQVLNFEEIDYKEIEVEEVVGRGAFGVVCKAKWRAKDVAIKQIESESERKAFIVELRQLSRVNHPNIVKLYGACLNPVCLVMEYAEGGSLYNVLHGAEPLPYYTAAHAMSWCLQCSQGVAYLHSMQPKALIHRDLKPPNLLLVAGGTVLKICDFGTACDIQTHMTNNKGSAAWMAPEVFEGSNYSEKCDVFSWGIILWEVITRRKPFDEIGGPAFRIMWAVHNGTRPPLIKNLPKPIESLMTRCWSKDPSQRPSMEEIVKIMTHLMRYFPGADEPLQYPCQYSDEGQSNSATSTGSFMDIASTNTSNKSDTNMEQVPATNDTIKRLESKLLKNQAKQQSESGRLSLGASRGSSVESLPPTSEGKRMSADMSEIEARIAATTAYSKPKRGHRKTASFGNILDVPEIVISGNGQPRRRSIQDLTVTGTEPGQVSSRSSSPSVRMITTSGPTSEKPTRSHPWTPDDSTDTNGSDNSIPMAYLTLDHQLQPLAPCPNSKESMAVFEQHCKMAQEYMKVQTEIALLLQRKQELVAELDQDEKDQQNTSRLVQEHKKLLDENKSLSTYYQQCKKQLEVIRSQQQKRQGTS
# Sequence of MAP3K7 TAB1 (human) (Q15750 whole entry, looked up): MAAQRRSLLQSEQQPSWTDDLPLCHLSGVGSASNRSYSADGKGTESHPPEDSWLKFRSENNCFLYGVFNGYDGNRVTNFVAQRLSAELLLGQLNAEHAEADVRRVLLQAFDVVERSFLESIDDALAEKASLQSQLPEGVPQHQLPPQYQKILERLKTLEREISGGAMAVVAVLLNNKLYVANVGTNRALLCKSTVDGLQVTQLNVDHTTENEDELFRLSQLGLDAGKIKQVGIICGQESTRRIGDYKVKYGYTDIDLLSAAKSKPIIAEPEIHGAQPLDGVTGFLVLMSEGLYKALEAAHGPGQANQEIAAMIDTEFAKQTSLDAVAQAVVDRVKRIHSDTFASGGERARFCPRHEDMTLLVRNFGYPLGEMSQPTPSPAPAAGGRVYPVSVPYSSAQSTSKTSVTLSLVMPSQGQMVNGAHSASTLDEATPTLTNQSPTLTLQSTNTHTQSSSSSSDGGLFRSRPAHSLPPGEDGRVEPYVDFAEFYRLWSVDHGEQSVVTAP
# GSK3B (human) = GSK3B (human) (UniProt P49841)
# Sequence of GSK3B (human) (P49841 whole entry, looked up): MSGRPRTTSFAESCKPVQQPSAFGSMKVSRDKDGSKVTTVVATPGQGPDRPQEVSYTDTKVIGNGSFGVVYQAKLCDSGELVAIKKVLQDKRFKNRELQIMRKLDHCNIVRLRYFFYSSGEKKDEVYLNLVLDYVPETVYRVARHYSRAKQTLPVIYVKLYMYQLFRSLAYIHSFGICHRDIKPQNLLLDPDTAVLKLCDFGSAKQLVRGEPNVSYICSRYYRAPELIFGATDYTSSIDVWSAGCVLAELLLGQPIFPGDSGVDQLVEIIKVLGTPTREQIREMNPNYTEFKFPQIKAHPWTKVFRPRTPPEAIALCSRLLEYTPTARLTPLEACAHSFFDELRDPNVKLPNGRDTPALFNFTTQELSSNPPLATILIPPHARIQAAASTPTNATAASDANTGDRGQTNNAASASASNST
# MELK (human) = MELK (human) (UniProt Q14680)
# PRKCZ (human) = PRKCZ (human) (UniProt Q05513); conditions: compound 10.0 µM
# MAPK14 (human) = MAPK14 (human) (UniProt Q16539)
# INSR (human) = INSR (human) (UniProt P06213)
# CAMKK2 (human) = CAMKK2 (human) (UniProt Q96RR4)
# LCK (mouse) = conditions: accession and sequence are those of the human protein
# CSK (human) = CSK (human) (UniProt P41240)
# Sequence of CSK (human) (P41240 whole entry, looked up): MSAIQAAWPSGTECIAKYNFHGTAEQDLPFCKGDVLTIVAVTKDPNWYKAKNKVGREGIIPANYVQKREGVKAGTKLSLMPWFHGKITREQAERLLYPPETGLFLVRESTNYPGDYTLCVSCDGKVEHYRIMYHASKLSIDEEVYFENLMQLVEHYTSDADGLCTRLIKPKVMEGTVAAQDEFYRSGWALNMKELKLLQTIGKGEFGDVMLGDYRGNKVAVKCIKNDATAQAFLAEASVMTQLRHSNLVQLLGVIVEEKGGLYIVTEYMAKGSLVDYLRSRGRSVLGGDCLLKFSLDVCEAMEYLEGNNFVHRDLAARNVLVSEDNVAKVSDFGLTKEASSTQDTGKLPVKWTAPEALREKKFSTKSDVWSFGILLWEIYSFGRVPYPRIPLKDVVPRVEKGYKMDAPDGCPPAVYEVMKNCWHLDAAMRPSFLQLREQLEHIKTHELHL
# JAK2 JH1 JH2 (human) = JAK2 JH1 JH2 (human) (UniProt O60674)
# MARK1 (human) = MARK1 (human) (UniProt Q9P0L2)
# FGFR1 (human) = FGFR1 (human) (UniProt P11362)
# Sequence of FGFR1 (human) (P11362 whole entry, looked up): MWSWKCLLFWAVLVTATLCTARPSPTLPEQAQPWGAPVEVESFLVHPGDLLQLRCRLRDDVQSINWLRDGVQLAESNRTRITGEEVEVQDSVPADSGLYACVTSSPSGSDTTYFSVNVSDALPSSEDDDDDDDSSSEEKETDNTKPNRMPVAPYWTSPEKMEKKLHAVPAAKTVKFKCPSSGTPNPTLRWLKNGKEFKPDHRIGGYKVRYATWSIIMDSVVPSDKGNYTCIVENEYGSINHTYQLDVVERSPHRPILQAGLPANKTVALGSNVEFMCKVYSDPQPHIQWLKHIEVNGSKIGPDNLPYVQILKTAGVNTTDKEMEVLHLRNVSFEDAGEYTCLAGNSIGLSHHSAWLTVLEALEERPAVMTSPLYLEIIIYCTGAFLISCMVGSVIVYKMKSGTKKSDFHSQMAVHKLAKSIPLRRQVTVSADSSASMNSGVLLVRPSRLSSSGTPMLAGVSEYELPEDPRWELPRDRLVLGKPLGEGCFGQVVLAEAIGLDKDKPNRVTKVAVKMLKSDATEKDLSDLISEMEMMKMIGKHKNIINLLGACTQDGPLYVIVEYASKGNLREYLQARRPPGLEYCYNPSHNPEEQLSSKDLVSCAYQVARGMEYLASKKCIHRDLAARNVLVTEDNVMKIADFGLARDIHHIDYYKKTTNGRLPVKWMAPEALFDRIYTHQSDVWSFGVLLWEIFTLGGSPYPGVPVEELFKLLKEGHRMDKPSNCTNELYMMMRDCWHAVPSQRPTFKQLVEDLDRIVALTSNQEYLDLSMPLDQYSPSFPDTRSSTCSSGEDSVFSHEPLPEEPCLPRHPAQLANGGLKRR
# HIPK1 (human) = HIPK1 (human) (UniProt Q86Z02)
# DYRK3 (human) = DYRK3 (human) (UniProt O43781)
# MAPK11 (human) = MAPK11 (human) (UniProt Q15759)
# SRC (human) = SRC (human) (UniProt P12931)
# BRSK1 (human) = BRSK1 (human) (UniProt Q8TDC3)
# Sequence of BRSK1 (human) (Q8TDC3 whole entry, looked up): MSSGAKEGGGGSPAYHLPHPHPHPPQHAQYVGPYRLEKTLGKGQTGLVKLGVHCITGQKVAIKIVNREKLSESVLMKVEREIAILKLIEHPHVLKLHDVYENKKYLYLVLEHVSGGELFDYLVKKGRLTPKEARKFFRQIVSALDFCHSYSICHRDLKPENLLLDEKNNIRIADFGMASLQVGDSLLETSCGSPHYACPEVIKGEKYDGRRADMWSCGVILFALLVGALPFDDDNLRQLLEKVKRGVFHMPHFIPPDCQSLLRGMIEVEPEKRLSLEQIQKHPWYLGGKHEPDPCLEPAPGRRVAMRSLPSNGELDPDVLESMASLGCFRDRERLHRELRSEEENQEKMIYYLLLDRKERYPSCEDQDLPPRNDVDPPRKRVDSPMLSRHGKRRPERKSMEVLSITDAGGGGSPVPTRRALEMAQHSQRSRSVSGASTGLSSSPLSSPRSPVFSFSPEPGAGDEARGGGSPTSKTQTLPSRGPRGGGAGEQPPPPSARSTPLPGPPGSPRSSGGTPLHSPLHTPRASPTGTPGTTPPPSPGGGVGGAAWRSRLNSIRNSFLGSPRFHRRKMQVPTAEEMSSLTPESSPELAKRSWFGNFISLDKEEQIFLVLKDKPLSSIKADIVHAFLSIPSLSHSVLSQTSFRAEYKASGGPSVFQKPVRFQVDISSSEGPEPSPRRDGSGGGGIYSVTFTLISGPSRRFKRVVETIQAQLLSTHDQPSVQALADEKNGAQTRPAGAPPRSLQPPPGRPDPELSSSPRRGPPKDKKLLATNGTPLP
# FLT1 (human) = FLT1 (human) (UniProt P17948)
# IGF1R (human) = IGF1R (human) (UniProt P08069)
# MAPKAPK5 (human) = MAPKAPK5 (human) (UniProt Q8IW41)
# MAPK15 (human) = MAPK15 (human) (UniProt Q8TD08)
# Sequence of TAOK1 (human) (Q7L7X3 whole entry, looked up): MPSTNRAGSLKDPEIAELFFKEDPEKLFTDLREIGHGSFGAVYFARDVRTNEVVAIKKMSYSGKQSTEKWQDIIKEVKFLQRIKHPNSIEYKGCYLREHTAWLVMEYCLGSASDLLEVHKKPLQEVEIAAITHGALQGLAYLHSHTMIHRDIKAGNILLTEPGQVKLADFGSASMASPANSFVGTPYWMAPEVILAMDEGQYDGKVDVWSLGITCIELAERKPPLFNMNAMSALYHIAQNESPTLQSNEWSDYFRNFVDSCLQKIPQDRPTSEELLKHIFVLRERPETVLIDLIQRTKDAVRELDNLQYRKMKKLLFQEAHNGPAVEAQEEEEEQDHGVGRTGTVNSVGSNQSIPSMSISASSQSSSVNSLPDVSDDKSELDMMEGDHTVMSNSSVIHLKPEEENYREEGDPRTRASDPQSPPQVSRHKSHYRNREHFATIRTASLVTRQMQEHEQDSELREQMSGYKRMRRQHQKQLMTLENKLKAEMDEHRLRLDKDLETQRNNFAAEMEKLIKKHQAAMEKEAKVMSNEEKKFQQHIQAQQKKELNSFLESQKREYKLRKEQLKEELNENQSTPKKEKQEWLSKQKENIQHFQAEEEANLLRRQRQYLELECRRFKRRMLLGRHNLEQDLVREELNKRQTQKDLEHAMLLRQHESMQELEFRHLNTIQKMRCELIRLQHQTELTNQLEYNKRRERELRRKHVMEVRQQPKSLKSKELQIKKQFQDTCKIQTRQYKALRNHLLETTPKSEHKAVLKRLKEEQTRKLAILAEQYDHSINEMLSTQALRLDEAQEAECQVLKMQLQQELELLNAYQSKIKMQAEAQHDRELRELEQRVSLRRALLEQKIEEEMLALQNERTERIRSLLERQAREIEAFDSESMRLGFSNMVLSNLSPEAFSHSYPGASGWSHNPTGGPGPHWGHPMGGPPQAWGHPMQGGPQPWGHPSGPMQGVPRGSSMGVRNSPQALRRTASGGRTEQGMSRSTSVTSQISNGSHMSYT
smiles,measurement,setting,value
NS(=O)(=O)OC[C@@H]1C[C@@H](n2ccc3c(N[C@H]4CCc5ccccc54)ncnc32)C[C@@H]1O,residual activity,ROCK2 (rat); compound 10.0 µM,81%
same,residual activity,CSNK1D (human); compound 1.0 µM,86%
same,residual activity,CSNK1D (human); compound 10.0 µM,84%
same,residual activity,TAOK1 (human); compound 1.0 µM,104%
same,residual activity,TAOK1 (human); compound 10.0 µM,100%
same,residual activity,EPHA2 (human); compound 10.0 µM,105%
same,residual activity,MAP3K1 (human); compound 10.0 µM,107%
same,residual activity,NTRK1 (human); compound 10.0 µM,92%
same,residual activity,CLK2 (human); compound 1.0 µM,127%
same,residual activity,RPS6KA3 KD1 KD2 (human); compound 1.0 µM,100%
same,residual activity,RPS6KA3 KD1 KD2 (human); compound 10.0 µM,96%
same,residual activity,[1]; compound 1.0 µM,127%
same,residual activity,[1]; compound 10.0 µM,104%
same,residual activity,RIPK2 (human); compound 1.0 µM,107%
same,residual activity,RIPK2 (human); compound 10.0 µM,121%
same,residual activity,IRAK4 (human); compound 10.0 µM,99%
same,residual activity,HIPK3 (human); compound 1.0 µM,84%
same,residual activity,HIPK3 (human); compound 10.0 µM,89%
same,residual activity,[2],88%
same,residual activity,MINK1 (human); compound 1.0 µM,93%
same,residual activity,MINK1 (human); compound 10.0 µM,96%
same,residual activity,MAP3K7 TAB1 (human); compound 1.0 µM,107%
same,residual activity,MAP3K7 TAB1 (human); compound 10.0 µM,105%
same,residual activity,GSK3B (human); compound 1.0 µM,93%
same,residual activity,GSK3B (human); compound 10.0 µM,98%
same,residual activity,MELK (human); compound 1.0 µM,87%
same,residual activity,MELK (human); compound 10.0 µM,91%
same,residual activity,PRKCZ (human),96%
same,residual activity,MAPK14 (human); compound 10.0 µM,102%
same,residual activity,INSR (human); compound 1.0 µM,89%
same,residual activity,INSR (human); compound 10.0 µM,93%
same,residual activity,CAMKK2 (human); compound 1.0 µM,96%
same,residual activity,CAMKK2 (human); compound 10.0 µM,108%
same,residual activity,LCK (mouse); compound 1.0 µM,98%
same,residual activity,LCK (mouse); compound 10.0 µM,110%
same,residual activity,CSK (human); compound 1.0 µM,78%
same,residual activity,JAK2 JH1 JH2 (human); compound 1.0 µM,89%
same,residual activity,JAK2 JH1 JH2 (human); compound 10.0 µM,93%
same,residual activity,MARK1 (human); compound 1.0 µM,100%
same,residual activity,MARK1 (human); compound 10.0 µM,107%
same,residual activity,FGFR1 (human); compound 10.0 µM,126%
same,residual activity,HIPK1 (human); compound 1.0 µM,98%
same,residual activity,DYRK3 (human); compound 10.0 µM,84%
same,residual activity,MAPK11 (human); compound 1.0 µM,95%
same,residual activity,MAPK11 (human); compound 10.0 µM,98%
same,residual activity,SRC (human); compound 10.0 µM,113%
same,residual activity,BRSK1 (human); compound 1.0 µM,89%
same,residual activity,FLT1 (human); compound 1.0 µM,89%
same,residual activity,FLT1 (human); compound 10.0 µM,104%
same,residual activity,IGF1R (human); compound 1.0 µM,94%
same,residual activity,IGF1R (human); compound 10.0 µM,88%
CC(C)(C#N)c1ccc(N2C(=O)OCc3cnc4ccc(-c5cnc6ccccc6c5)cc4c32)cc1,residual activity,ROCK2 (rat); compound 1.0 µM,120%
same,residual activity,ROCK2 (rat); compound 10.0 µM,104%
same,residual activity,CSNK1D (human); compound 1.0 µM,92%
same,residual activity,CSNK1D (human); compound 10.0 µM,95%
same,residual activity,TAOK1 (human); compound 1.0 µM,91%
same,residual activity,TAOK1 (human); compound 10.0 µM,94%
same,residual activity,EPHA2 (human); compound 1.0 µM,69%
same,residual activity,EPHA2 (human); compound 10.0 µM,81%
same,residual activity,MAP3K1 (human); compound 1.0 µM,69%
same,residual activity,MAP3K1 (human); compound 10.0 µM,85%
same,residual activity,MAPKAPK5 (human); compound 1.0 µM,82%
same,residual activity,MAPKAPK5 (human); compound 10.0 µM,89%
same,residual activity,NTRK1 (human); compound 1.0 µM,50%
same,residual activity,CLK2 (human); compound 1.0 µM,75%
same,residual activity,CLK2 (human); compound 10.0 µM,91%
same,residual activity,RPS6KA3 KD1 KD2 (human); compound 1.0 µM,89%
same,residual activity,RPS6KA3 KD1 KD2 (human); compound 10.0 µM,100%
same,residual activity,[1]; compound 1.0 µM,87%
same,residual activity,[1]; compound 10.0 µM,85%
same,residual activity,RIPK2 (human); compound 1.0 µM,57%
same,residual activity,RIPK2 (human); compound 10.0 µM,38%
same,residual activity,IRAK4 (human); compound 1.0 µM,90%
same,residual activity,IRAK4 (human); compound 10.0 µM,89%
same,residual activity,HIPK3 (human); compound 1.0 µM,96%
same,residual activity,HIPK3 (human); compound 10.0 µM,94%
same,residual activity,[2],100%
same,residual activity,MINK1 (human); compound 1.0 µM,72%
same,residual activity,MINK1 (human); compound 10.0 µM,55%
same,residual activity,MAP3K7 TAB1 (human); compound 1.0 µM,64%
same,residual activity,MAP3K7 TAB1 (human); compound 10.0 µM,78%
same,residual activity,MAPK15 (human); compound 1.0 µM,73%
same,residual activity,MAPK15 (human); compound 10.0 µM,67%
same,residual activity,GSK3B (human); compound 1.0 µM,74%
same,residual activity,GSK3B (human); compound 10.0 µM,89%
same,residual activity,MELK (human); compound 1.0 µM,49%
same,residual activity,MELK (human); compound 10.0 µM,49%
same,residual activity,MAPK14 (human); compound 1.0 µM,93%
same,residual activity,MAPK14 (human); compound 10.0 µM,134%
same,residual activity,INSR (human); compound 1.0 µM,96%
same,residual activity,INSR (human); compound 10.0 µM,96%
same,residual activity,CAMKK2 (human); compound 1.0 µM,69%
same,residual activity,CAMKK2 (human); compound 10.0 µM,59%
same,residual activity,LCK (mouse); compound 1.0 µM,78%
same,residual activity,LCK (mouse); compound 10.0 µM,98%
same,residual activity,CSK (human); compound 1.0 µM,75%
same,residual activity,CSK (human); compound 10.0 µM,89%
same,residual activity,JAK2 JH1 JH2 (human); compound 1.0 µM,26%
same,residual activity,JAK2 JH1 JH2 (human); compound 10.0 µM,31%
same,residual activity,MARK1 (human); compound 1.0 µM,96%
same,residual activity,MARK1 (human); compound 10.0 µM,114%
same,residual activity,FGFR1 (human); compound 1.0 µM,98%
same,residual activity,FGFR1 (human); compound 10.0 µM,93%
same,residual activity,HIPK1 (human); compound 1.0 µM,94%
same,residual activity,HIPK1 (human); compound 10.0 µM,97%
same,residual activity,DYRK3 (human); compound 1.0 µM,57%
same,residual activity,DYRK3 (human); compound 10.0 µM,64%
same,residual activity,MAPK11 (human); compound 1.0 µM,89%
same,residual activity,MAPK11 (human); compound 10.0 µM,103%
same,residual activity,SRC (human); compound 1.0 µM,83%
same,residual activity,SRC (human); compound 10.0 µM,130%
same,residual activity,BRSK1 (human); compound 1.0 µM,97%
same,residual activity,BRSK1 (human); compound 10.0 µM,86%
same,residual activity,FLT1 (human); compound 1.0 µM,87%
same,residual activity,FLT1 (human); compound 10.0 µM,107%
same,residual activity,IGF1R (human); compound 1.0 µM,89%
same,residual activity,IGF1R (human); compound 10.0 µM,67%
